Data from US20180170941A1 (priority 2016, published 2018).
Where two headings read alike, the source gives them in different places.

Target: T1, α5β3γ2 GABAA receptors (Ltk cell membranes) (Homo sapiens, UniProt P18507+P31644)
T1 construct: membranes
Assay: Binding activity of test compounds on GABAAR: inhibition of [3H]Ro15-1788 binding
Experimental: Tissue culture and Membrane Preparation: The binding was performed on Ltk cells stably expressing GABAA receptors: α1β1γ2, α2β3γ2, α3β3γ2 and α5β3γ2 (provided by Merck Co., NJ, USA). Cells were seeded in 100 mm culture plates in DMEM/F12 medium containing 10% serum and antibiotics in 5% CO2 and allowed to grow for 1-2 days. GABAAR expression was then induced by dexamethasone as follows: 0.5 μM for 1 day for α5 containing and 2μM for 3 days for α1, α2 and α3 containing GABAARs. After induction, cells were collected by scraping into Dulbecco's Phosphate buffered saline (DPBS, pH 7.4, Invitrogen, Carlsbad, Calif., USA) and centrifuged at 150×g for 10 min. The pellet was washed twice by re-suspension and centrifugation. The cell pellets from at least 5 different preps were combined, suspended in the binding assay buffer (50 mM KH2P4; 1 mM EDTA; 0.2 M KCl, pH 7.4) and membranes prepared by sonication (3-5 times, 30 sec) using Branson Sonifier 150 (G.Heinmann, Germany). Protein content was determined using BCA assay (Bio-Rad Labs, Reinach, Switzerland) with Bovine Serum Albumin (Sigma Aldrich, St. Louis, Mo., USA) as the standard. Aliquots were prepared and stored at −20° C. for further use in binding assays.
Ligand Binding: Saturation binding curves were obtained by incubating membranes with increasing concentrations (0.01-8 nM) of [^3H]Ro15-1788 (Flumazepil, 75-85 Ci/mmol, PerkinElmer, MA, USA), with nonspecific binding measured in the presence of 10 μM diazepam.
All binding assays were performed for 1 h at 4° C. in assay buffer. The total assay volume was 0.5 ml containing 0.2 mg/ml protein for α5 and 0.4 mg/ml for α1, α2, and α3 containing GABAAR membranes. Incubations were terminated by filtration through GF/B filters using a 24-Cell Harvestor (Brandel, Gaithersburg, Md., USA) followed by 3 washes with ice-cold assay buffer. Filters were transferred to scintillation vials, 5 ml scintillation liquid added, vortex-mixed and kept in dark. Next day, radioactivity was obtained using a scintillation counter (Beckman Coulter, Brea, Calif., USA). All assays were performed in triplicate.
Data Analyses: Saturation and inhibition curves were obtained using GraphPad Prism software (GraphPad Software, Inc., CA, USA).

[1] = GABA α5 Binding Ki Values, inhibition of [3H]Ro15-1788 binding, reported as ranges

T1 sequence (P31644 32-462): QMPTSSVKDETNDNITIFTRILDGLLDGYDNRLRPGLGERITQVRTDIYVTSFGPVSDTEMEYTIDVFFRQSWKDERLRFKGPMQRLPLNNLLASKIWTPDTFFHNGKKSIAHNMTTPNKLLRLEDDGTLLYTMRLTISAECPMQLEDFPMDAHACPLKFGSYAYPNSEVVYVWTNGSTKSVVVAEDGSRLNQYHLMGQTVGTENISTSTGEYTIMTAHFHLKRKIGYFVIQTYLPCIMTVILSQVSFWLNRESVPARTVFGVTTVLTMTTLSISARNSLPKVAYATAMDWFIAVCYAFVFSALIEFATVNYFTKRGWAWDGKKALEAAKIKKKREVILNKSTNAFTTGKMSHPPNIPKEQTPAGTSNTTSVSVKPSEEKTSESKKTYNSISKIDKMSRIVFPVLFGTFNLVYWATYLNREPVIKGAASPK
T1 sequence (P28472 26-473 partner): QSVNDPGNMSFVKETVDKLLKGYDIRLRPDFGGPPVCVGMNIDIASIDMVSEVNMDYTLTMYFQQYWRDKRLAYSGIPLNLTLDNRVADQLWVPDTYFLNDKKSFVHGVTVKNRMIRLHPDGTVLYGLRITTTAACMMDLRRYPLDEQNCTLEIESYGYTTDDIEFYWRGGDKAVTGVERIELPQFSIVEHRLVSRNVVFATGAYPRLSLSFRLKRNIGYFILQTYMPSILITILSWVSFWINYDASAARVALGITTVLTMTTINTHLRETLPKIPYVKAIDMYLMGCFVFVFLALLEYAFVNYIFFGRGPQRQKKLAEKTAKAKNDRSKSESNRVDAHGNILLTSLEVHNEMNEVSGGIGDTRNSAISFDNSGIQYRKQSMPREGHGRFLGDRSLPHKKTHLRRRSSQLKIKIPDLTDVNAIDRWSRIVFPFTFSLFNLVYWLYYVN
T1 sequence (P18507 40-475): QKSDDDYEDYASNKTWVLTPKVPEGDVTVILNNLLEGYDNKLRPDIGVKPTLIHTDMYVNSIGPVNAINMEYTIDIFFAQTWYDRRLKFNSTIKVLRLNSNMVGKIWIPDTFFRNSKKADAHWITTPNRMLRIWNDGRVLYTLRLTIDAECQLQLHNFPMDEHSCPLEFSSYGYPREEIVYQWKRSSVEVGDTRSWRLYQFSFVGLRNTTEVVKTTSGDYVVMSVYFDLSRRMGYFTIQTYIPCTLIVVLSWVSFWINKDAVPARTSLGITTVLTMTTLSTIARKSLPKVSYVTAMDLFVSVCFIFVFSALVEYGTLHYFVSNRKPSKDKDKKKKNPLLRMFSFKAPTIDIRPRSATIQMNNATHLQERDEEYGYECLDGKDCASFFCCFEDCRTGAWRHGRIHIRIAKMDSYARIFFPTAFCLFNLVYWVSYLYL

SMILES	Ki [1]	Ki
CCOC(=O)c1ncn2c1Cc1c(C)nnn1-c1cc(OC)ccc1-2 [Compound 1]	< 100 nM	
CCOC(=O)c1ncn2c1Cc1c(C)nnn1-c1cc(F)ccc1-2 [Compound 2]	< 100 nM	
CCOC(=O)c1ncn2c1Cc1c(C)nnn1-c1ccccc1-2 [Compound 3]	< 100 nM	
CCOC(=O)c1ncn2c1Cc1c(Cc3ccccc3)nnn1-c1cc(OC)ccc1-2 [Compound 4]	< 100 nM	
CCOC(=O)c1ncn2c1Cc1c(Cc3ccccc3)nnn1-c1ccccc1-2 [Compound 5]	< 100 nM	
CCOC(=O)c1ncn2c1Cc1c(Cc3ccccc3)nnn1-c1cc(F)ccc1-2 [Compound 6]	< 100 nM	
CCOC(=O)c1ncn2c1Cc1c(C)cnn1-c1cc(OC)ccc1-2 [Compound 7]	< 100 nM	
CCOC(=O)c1ncn2c1Cc1c(Cc3ccccc3)cnn1-c1cc(OC)ccc1-2 [Compound 8]	< 100 nM	
CCOC(=O)c1ncn2c1Cc1c(COc3ccccc3)nnn1-c1cc(OC)ccc1-2 [Compound 9]	< 100 nM	
CCOC(=O)c1ncn2c1Cc1c(COc3ccc(F)cc3)nnn1-c1cc(OC)ccc1-2 [Compound 10]	< 100 nM	
CCOC(=O)c1ncn2c1Cc1c(COc3cccc(OC)c3)nnn1-c1cc(OC)ccc1-2 [Compound 11]	< 100 nM	
CCOC(=O)c1ncn2c1Cc1c(COc3ccc(C)cc3C)nnn1-c1cc(OC)ccc1-2 [Compound 12]	< 100 nM	
CCOC(=O)c1ncn2c1Cc1c(Cc3ccc(C)cc3)nnn1-c1cc(F)ccc1-2 [Compound 44]	< 100 nM	
CCOC(=O)c1ncn2c1Cc1c(Cc3ccc(Cl)cc3)nnn1-c1cc(F)ccc1-2 [Compound 45]	< 100 nM	
CCOC(=O)c1ncn2c1Cc1c(Cc3ccc(F)cc3)nnn1-c1cc(F)ccc1-2 [Compound 46]	< 100 nM	
CCOC(=O)c1ncn2c1Cc1c(Cc3ccc(Cl)cc3)nnn1-c1ccccc1-2 [Compound 47]	< 100 nM	
CCOC(=O)c1ncn2c1Cc1c(CN3CCCC3)nnn1-c1cc(OC)ccc1-2 [Compound 48]	< 100 nM	
CCOC(=O)c1ncn2c1Cc1c(CN3CCOCC3)nnn1-c1cc(OC)ccc1-2 [Compound 49]	< 100 nM	
CCOC(=O)c1ncn2c1Cc1c(CN(CC)CC)nnn1-c1cc(OC)ccc1-2 [Compound 50]	100 to 1000 nM	
CCOC(=O)c1ncn2c1Cc1c(CN(C)Cc3ccccc3)nnn1-c1cc(OC)ccc1-2 [Compound 51]	< 100 nM	
CCOC(=O)c1ncn2c1Cc1c(Cc3cccc(Cl)c3)nnn1-c1cc(OC)ccc1-2 [Compound 52]	< 100 nM	
CCOC(=O)c1ncn2c1Cc1c(Cc3cccc(C#N)c3)nnn1-c1cc(OC)ccc1-2 [Compound 53]	< 100 nM	
CCOC(=O)c1ncn2c1Cn1c(COc3ccccc3)nnc1-c1cc(OC)ccc1-2 [Compound 55]	< 100 nM	
CCOC(=O)c1ncn2c1Cn1c(COc3ccc(F)cc3)nnc1-c1cc(OC)ccc1-2 [Compound 56]	< 100 nM	
CCOC(=O)c1ncn2c1Cc1c(Cc3ccccc3)nnn1-c1cc(C)ccc1-2 [Compound 101]	< 100 nM	

SMILES	Ki [1]	Ki
CCOC(=O)c1ncn2c1Cc1c(C)nnn1-c1cc(C)ccc1-2 [Compound 102]	< 100 nM	
CCOC(=O)c1ncn2c1Cn1c(COC)nnc1-c1cc(OC)ccc1-2 [Compound 103]	< 100 nM	
CCOC(=O)c1ncn2c1Cn1c(Oc3ccccc3)nnc1-c1cc(OC)ccc1-2 [Compound 104]	< 100 nM	
CCOC(=O)c1ncn2c1Cn1c(Oc3cccc(OC)c3)nnc1-c1cc(OC)ccc1-2 [Compound 105]	< 100 nM	
CCOC(=O)c1ncn2c1Cn1c(Br)nnc1-c1cc(OC)ccc1-2 [Compound 106]	< 100 nM	
CCOC(=O)c1ncn2c1Cc1c(COc3ccccc3)nnn1-c1cc(F)ccc1-2 [Compound 107]	< 100 nM	
CCOC(=O)c1ncn2c1Cc1c(Cc3ccccc3Cl)nnn1-c1cc(OC)ccc1-2 [Compound 108]	< 100 nM	
Cc1noc(-c2ncn3c2Cc2c(Cc4ccccc4)nnn2-c2cc(F)ccc2-3)n1 [Compound 109]	< 100 nM	
Cc1noc(-c2ncn3c2Cc2c(C)nnn2-c2cc(F)ccc2-3)n1 [Compound 110]	100 to 1000 nM	
Cc1nnn2c1Cc1c(C(=O)OC(C)C)ncn1-c1ccc(F)cc1-2 [Compound 112]	< 100 nM	
Cc1nnn2c1Cc1c(C(=O)OCC(C)(C)C)ncn1-c1ccc(F)cc1-2 [Compound 113]	100 to 1000 nM	
Cc1nnn2c1Cc1c(C(=O)OCC(F)(F)F)ncn1-c1ccc(F)cc1-2 [Compound 114]	< 100 nM	
Cc1nnn2c1Cc1c(C#N)ncn1-c1ccccc1-2 [Compound 115]	100 to 1000 nM	
Cc1nnn2c1Cc1c(C#N)ncn1-c1ccc(F)cc1-2 [Compound 116]	> 1000 nM	
Cc1nnn2c1Cc1c(C(N)=O)ncn1-c1ccccc1-2 [Compound 117]	> 1000 nM	
COc1ccc2c(c1)-c1nnc(COc3ccccc3)n1Cc1c(-c3nc(C)no3)ncn1-2 [Compound 118]	< 100 nM	
COc1ccc2c(c1)-c1nnc(COc3ccccc3)n1Cc1c(C(=O)OCC(C)(C)C)ncn1-2 [Compound 119]	100 to 1000 nM	
COc1ccc2c(c1)-c1nnc(COc3ccccc3)n1Cc1c(C(=O)OC(C)C)ncn1-2 [Compound 120]	< 100 nM	
Cc1ncn2c1Cc1c(C)nnn1-c1ccccc1-2 [Compound 121]	> 1000 nM	
COc1ccc2c(c1)-c1nnc(COc3ccccc3)n1Cc1c(C#N)ncn1-2 [Compound 122]	< 100 nM	
CCC(=O)c1ncn2c1Cn1c(COc3ccccc3)nnc1-c1cc(OC)ccc1-2 [Compound 123]		> 1000 nM
COc1ccc2c(c1)-c1nnc(COc3ccccc3)n1Cc1c(C(F)F)ncn1-2 [Compound 124]	100 to 1000 nM	
CCC(=O)c1ncn2c1Cc1c(C)nnn1-c1ccccc1-2 [Compound 125]	100 to 1000 nM	
Cc1noc(-c2ncn3c2Cc2c(C)nnn2-c2ccccc2-3)n1 [Compound 126]	< 100 nM	
Cc1nc(-c2ncn3c2Cc2c(C)nnn2-c2ccccc2-3)no1 [Compound 127]	< 100 nM	

SMILES	Ki [1]	Ki
COCc1nnc2n1Cc1c(-c3nc(C)no3)ncn1-c1ccc(OC)cc1-2 [Compound 128]	< 100 nM	
COCc1nnc2n1Cc1c(Br)ncn1-c1ccc(OC)cc1-2 [Compound 129]	< 100 nM	
COCc1nnc2n1Cc1c(-c3nc(C(C)C)no3)ncn1-c1ccc(OC)cc1-2 [Compound 130]	< 100 nM	
COCc1nnc2n1Cc1cncn1-c1ccc(OC)cc1-2 [Compound 131]		> 1000 nM
Cc1nnn2c1Cc1c(-c3nc(C(C)C)no3)ncn1-c1ccccc1-2 [Compound 132]	< 100 nM	
Cc1nnn2c1Cc1c(-c3noc(C(C)C)n3)ncn1-c1ccccc1-2 [Compound 133]	< 100 nM	
CCOCc1ncn2c1Cc1c(COCC)nnn1-c1ccccc1-2 [Compound 134]	100 to 1000 nM	
Cc1ncn2c1Cc1c(C)nnn1-c1cc(F)ccc1-2 [Compound 135]	> 1000 nM	
Cc1nnn2c1Cc1c(Br)ncn1-c1ccc(F)cc1-2 [Compound 136]	100 to 1000 nM	
CCOC(=O)c1ncn2c1Cn1c(COc3ccccc3)nnc1-c1cc(F)ccc1-2 [Compound 137]	< 100 nM	
Cc1noc(-c2ncn3c2Cn2c(COc4ccccc4)nnc2-c2cc(F)ccc2-3)n1 [Compound 138]	100 to 1000 nM	
Cc1nnn2c1Cc1c(-c3ccccc3)ncn1-c1ccc(F)cc1-2 [Compound 139]	100 to 1000 nM	
Cc1nnn2c1Cc1c(-c3cccnc3)ncn1-c1ccc(F)cc1-2 [Compound 140]	> 1000 nM	
CC(C)c1noc(-c2ncn3c2Cn2c(COc4ccccc4)nnc2-c2cc(F)ccc2-3)n1 [Compound 141]	100 to 1000 nM	
COc1ccc2c(c1)-c1nnc(COc3ccccc3)n1Cc1c(Cc3ccccc3)ncn1-2 [Compound 142]		> 1000 nM
Cc1ccc(S(=O)(=O)c2ncn3c2Cc2c(C)nnn2-c2cc(F)ccc2-3)cc1 [Compound 143]	100 to 1000 nM	> 1000 nM
Cc1cnc(-c2ncn3c2Cc2c(C)nnn2-c2cc(F)ccc2-3)nc1 [Compound 144]	100 to 1000 nM	
Cc1nc(-c2ncn3c2Cc2c(C)nnn2-c2cc(F)ccc2-3)no1 [Compound 145]	< 100 nM	
Cc1cnc(-c2ncn3c2Cc2c(C)nnn2-c2ccccc2-3)nc1 [Compound 146]	100 to 1000 nM	
CC(C)c1nc(-c2ncn3c2Cn2c(COc4ccccc4)nnc2-c2cc(F)ccc2-3)no1 [Compound 147]	< 100 nM	
Cc1nc(-c2ncn3c2Cn2c(COc4ccccc4)nnc2-c2cc(F)ccc2-3)no1 [Compound 148]	< 100 nM	
Cc1nnn2c1Cc1c(-c3noc(C(C)C)n3)ncn1-c1ccc(F)cc1-2 [Compound 149]	< 100 nM	
Cc1nnn2c1Cc1c(-c3noc(C(F)(F)F)n3)ncn1-c1ccc(F)cc1-2 [Compound 150]	< 100 nM	
